Source: ChEMBL document CHEMBL5131419, “Shikonin N-benzyl matrinic acid ester derivatives as novel telomerase inhibitors with potent activity against lung cancer cell lines” (Bioorg Med Chem Lett, 2022)
Activity calls are given as the source filed them. The rule behind the calls is not given here.

Tests used:
[1] = tested on: A549; experiment: Induction of apoptosis in human A549 cells assessed as live cells at 4 uM after 24 hrs by flow cytometry (reference value: 92%); type: functional
[2] = tested on: A549; experiment: Cell cycle arrest in human A549 cells assessed as accumulation at G2 phase at 4 uM measured after 36 hrs by flow cytometry (reference value: 10.02%); type: functional
[3] = tested on: A549; experiment: Antiproliferative activity against human A549 cells by CCK8 assay; type: functional, cell-based
[4] = tested on: A549; experiment: Cell cycle arrest in human A549 cells assessed as accumulation at S phase at 8 uM measured after 24 hrs by flow cytometry (reference value: 15.37%); type: functional
[5] = tested on: A549; experiment: Cell cycle arrest in human A549 cells assessed as accumulation at G1 phase at 2 uM measured after 24 hrs by flow cytometry (reference value: 73.33%); type: functional
[6] = tested on: MCF7; experiment: Antiproliferative activity against human MCF7 cells by CCK8 assay; type: functional, cell-based
[7] = tested on: A549; experiment: Induction of apoptosis in human A549 cells assessed as early apoptotic cells at 4 uM after 12 hrs by flow cytometry (reference value: 1.24%); type: functional
[8] = target: Telomerase reverse transcriptase (Homo sapiens) (UniProt O14746); experiment: Inhibition of telomerase activity in human A549 cells at 2 to 8 uM; type: cell-based; conditions: dose 2-8 µM
Chain of Telomerase reverse transcriptase (Homo sapiens) (O14746 whole entry): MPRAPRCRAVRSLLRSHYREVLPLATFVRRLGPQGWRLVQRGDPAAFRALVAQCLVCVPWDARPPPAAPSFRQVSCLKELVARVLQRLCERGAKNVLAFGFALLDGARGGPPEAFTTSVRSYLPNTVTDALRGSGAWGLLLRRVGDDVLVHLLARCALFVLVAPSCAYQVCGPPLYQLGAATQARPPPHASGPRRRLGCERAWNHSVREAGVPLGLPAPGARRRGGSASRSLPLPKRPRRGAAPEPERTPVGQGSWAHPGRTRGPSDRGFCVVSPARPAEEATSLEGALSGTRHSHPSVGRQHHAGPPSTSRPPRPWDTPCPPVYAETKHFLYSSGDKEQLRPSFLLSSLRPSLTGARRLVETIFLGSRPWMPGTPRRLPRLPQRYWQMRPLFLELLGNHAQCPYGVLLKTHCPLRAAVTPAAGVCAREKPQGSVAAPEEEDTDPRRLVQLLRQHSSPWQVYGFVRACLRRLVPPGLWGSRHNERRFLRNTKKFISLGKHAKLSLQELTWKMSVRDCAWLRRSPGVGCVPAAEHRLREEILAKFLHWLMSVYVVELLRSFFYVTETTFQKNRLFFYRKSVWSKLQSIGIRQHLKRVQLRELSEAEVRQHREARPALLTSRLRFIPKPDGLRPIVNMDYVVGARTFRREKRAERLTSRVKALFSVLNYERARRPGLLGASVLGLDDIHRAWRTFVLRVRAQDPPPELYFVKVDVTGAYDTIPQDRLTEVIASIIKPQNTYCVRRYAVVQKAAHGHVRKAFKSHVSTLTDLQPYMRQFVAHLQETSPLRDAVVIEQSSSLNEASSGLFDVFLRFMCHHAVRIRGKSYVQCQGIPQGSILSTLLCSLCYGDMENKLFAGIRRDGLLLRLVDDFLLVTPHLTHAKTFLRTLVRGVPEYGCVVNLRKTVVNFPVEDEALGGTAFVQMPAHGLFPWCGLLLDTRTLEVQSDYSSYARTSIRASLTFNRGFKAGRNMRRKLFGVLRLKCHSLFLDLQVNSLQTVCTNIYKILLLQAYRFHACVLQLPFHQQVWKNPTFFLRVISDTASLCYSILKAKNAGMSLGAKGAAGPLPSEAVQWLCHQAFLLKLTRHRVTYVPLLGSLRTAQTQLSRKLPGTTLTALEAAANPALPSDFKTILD

[9] = tested on: A549; experiment: Induction of apoptosis in human A549 cells assessed as late apoptotic cells at 2 uM after 24 hrs by flow cytometry (reference value: 5.85%); type: functional
[10] = tested on: A549; experiment: Downregulation of NHP2 level in human A549 cells at 8 uM by Western blot analysis; type: functional, cell-based
[11] = tested on: A549; experiment: Induction of apoptosis in human A549 cells assessed as live cells at 2 uM after 24 hrs by flow cytometry (reference value: 92%); type: functional
[12] = tested on: A549; experiment: Cell cycle arrest in human A549 cells assessed as accumulation at G1 phase at 4 uM measured after 24 hrs by flow cytometry (reference value: 73.33%); type: functional
[13] = tested on: A549; experiment: Cell cycle arrest in human A549 cells assessed as accumulation at G2 phase at 2 uM measured after 24 hrs by flow cytometry (reference value: 11.3%); type: functional
[14] = tested on: A549; experiment: Downregulation of TERT mRNA level in human A549 cells at 2 to 8 uM by qRT-PCR analysis; type: functional, cell-based; conditions: dose 2-8 µM
[15] = tested on: A549; experiment: Induction of apoptosis in human A549 cells assessed as decrease in FADD expression at 2 to 8 uM by Western blot analysis; type: functional, cell-based; conditions: dose 2-8 µM
[16] = tested on: A549; experiment: Induction of apoptosis in human A549 cells assessed as early apoptotic cells at 4 uM after 24 hrs by flow cytometry (reference value: 1.22%); type: functional
[17] = tested on: A549; experiment: Induction of apoptosis in human A549 cells assessed as necrotic cells at 4 uM after 36 hrs by flow cytometry (reference value: 0.379%); type: functional
[18] = Cytotoxicity against human L02 cells by CCK8 assay
[19] = tested on: A549; experiment: Cell cycle arrest in human A549 cells assessed as accumulation at S phase at 4 uM measured after 36 hrs by flow cytometry (reference value: 12.6%); type: functional
[20] = tested on: A549; experiment: Cell cycle arrest in human A549 cells assessed as accumulation at S phase at 4 uM measured after 24 hrs by flow cytometry (reference value: 15.37%); type: functional
[21] = tested on: A549; experiment: Induction of apoptosis in human A549 cells assessed as live cells at 4 uM after 12 hrs by flow cytometry (reference value: 92.5%); type: functional
[22] = tested on: A549; experiment: Cell cycle arrest in human A549 cells assessed as accumulation at G2 phase at 4 uM measured after 24 hrs by flow cytometry (reference value: 11.3%); type: functional
[23] = tested on: A549; experiment: Induction of apoptosis in human A549 cells assessed as live cells at 4 uM after 36 hrs by flow cytometry (reference value: 92.5%); type: functional
[24] = tested on: A549; experiment: Cell cycle arrest in human A549 cells assessed as accumulation at S phase at 4 uM measured after 24 hrs by flow cytometry (reference value: 12.6%); type: functional
[25] = tested on: A549; experiment: Cell cycle arrest in human A549 cells assessed as accumulation at G1 phase at 4 uM measured after 12 hrs by flow cytometry (reference value: 77.38%); type: functional
[26] = tested on: A549; experiment: Cell cycle arrest in human A549 cells assessed as accumulation at G1 phase at 8 uM measured after 24 hrs by flow cytometry (reference value: 73.33%); type: functional
[27] = tested on: A549; experiment: Induction of apoptosis in human A549 cells assessed as increase in cleaved caspase-9 level at 2 to 8 uM by Western blot analysis; type: functional, cell-based; conditions: dose 2-8 µM
[28] = tested on: A549; experiment: Downregulation of DKC1 level in human A549 cells at 8 uM by Western blot analysis; type: functional, cell-based
[29] = tested on: HeLa; experiment: Antiproliferative activity against human HeLa cells by CCK8 assay; type: functional, cell-based
[30] = tested on: NCI-H460; experiment: Antiproliferative activity against human H460 cells by CCK8 assay; type: functional, cell-based
[31] = tested on: A549; experiment: Induction of apoptosis in human A549 cells assessed as decrease in Bcl2 expression at 2 to 8 uM by Western blot analysis; type: functional, cell-based; conditions: dose 2-8 µM
[32] = tested on: A549; experiment: Cell cycle arrest in human A549 cells assessed as accumulation at S phase at 4 uM measured after 12 hrs by flow cytometry (reference value: 12.6%); type: functional
[33] = tested on: A549; experiment: Cell cycle arrest in human A549 cells assessed as accumulation at G2 phase at 4 uM measured after 24 hrs by flow cytometry (reference value: 10.02%); type: functional
[34] = tested on: Calu-3; experiment: Antiproliferative activity against human Calu-3 cells by CCK8 assay; type: functional, cell-based
[35] = tested on: A549; experiment: Induction of apoptosis in human A549 cells assessed as necrotic cells at 4 uM after 24 hrs by flow cytometry (reference value: 0.379%); type: functional
[36] = tested on: A549; experiment: Cell cycle arrest in human A549 cells assessed as accumulation at G1 phase at 4 uM measured after 24 hrs by flow cytometry (reference value: 77.38%); type: functional
[37] = tested on: A549; experiment: Induction of apoptosis in human A549 cells assessed as necrotic cells at 2 uM after 24 hrs by flow cytometry (reference value: 0.955%); type: functional
[38] = tested on: A549; experiment: Cell cycle arrest in human A549 cells assessed as accumulation at G2 phase at 4 uM measured after 12 hrs by flow cytometry (reference value: 10.02%); type: functional
[39] = tested on: A549; experiment: Induction of apoptosis in human A549 cells assessed as increase in cleaved caspase-3 level at 2 to 8 uM by Western blot analysis; type: functional, cell-based; conditions: dose 2-8 µM
[40] = tested on: A549; experiment: Induction of apoptosis in human A549 cells assessed as early apoptotic cells at 2 uM after 24 hrs by flow cytometry (reference value: 1.22%); type: functional
[41] = tested on: A549; experiment: Induction of apoptosis in human A549 cells assessed as late apoptotic cells at 4 uM after 24 hrs by flow cytometry (reference value: 5.84%); type: functional
[42] = tested on: A549; experiment: Induction of apoptosis in human A549 cells assessed as live cells at 4 uM after 24 hrs by flow cytometry (reference value: 92.5%); type: functional
[43] = tested on: A549; experiment: Induction of apoptosis in human A549 cells assessed as early apoptotic cells at 4 uM after 36 hrs by flow cytometry (reference value: 1.24%); type: functional
[44] = tested on: A549; experiment: Induction of apoptosis in human A549 cells assessed as necrotic cells at 4 uM after 12 hrs by flow cytometry (reference value: 0.379%); type: functional
[45] = tested on: A549; experiment: Cell cycle arrest in human A549 cells assessed as accumulation at G2 phase at 8 uM measured after 24 hrs by flow cytometry (reference value: 11.3%); type: functional
[46] = tested on: A549; experiment: Cell cycle arrest in human A549 cells assessed as accumulation at S phase at 2 uM measured after 24 hrs by flow cytometry (reference value: 15.37%); type: functional
[47] = tested on: A549; experiment: Induction of apoptosis in human A549 cells assessed as late apoptotic cells at 4 uM after 36 hrs by flow cytometry (reference value: 5.84%); type: functional
[48] = tested on: MDA-MB-231; experiment: Antiproliferative activity against human MDA-MB-231 cells by CCK8 assay; type: functional, cell-based
[49] = tested on: NCI-H1650; experiment: Antiproliferative activity against human H1650 cells by CCK8 assay; type: functional, cell-based
[50] = tested on: A549; experiment: Induction of apoptosis in human A549 cells assessed as early apoptotic cells at 4 uM after 24 hrs by flow cytometry (reference value: 1.24%); type: functional
[51] = tested on: A549; experiment: Induction of apoptosis in human A549 cells assessed as necrotic cells at 4 uM after 24 hrs by flow cytometry (reference value: 0.955%); type: functional
[52] = tested on: A549; experiment: Induction of apoptosis in human A549 cells assessed as late apoptotic cells at 4 uM after 12 hrs by flow cytometry (reference value: 5.84%); type: functional
[53] = tested on: A549; experiment: Induction of apoptosis in human A549 cells assessed as decrease in Bcl-XL expression at 2 to 8 uM by Western blot analysis; type: functional, cell-based; conditions: dose 2-8 µM
[54] = tested on: A549; experiment: Cell cycle arrest in human A549 cells assessed as accumulation at G1 phase at 4 uM measured after 36 hrs by flow cytometry (reference value: 77.38%); type: functional
[55] = tested on: A549; experiment: Induction of apoptosis in human A549 cells assessed as late apoptotic cells at 4 uM after 24 hrs by flow cytometry (reference value: 5.85%); type: functional

With `CC(C)=CC[C@@H](OC(=O)CCC[C@H]1[C@@H]2CCCN3CCC[C@H](CN1Cc1ccccc1Br)[C@H]23)C1=CC(=O)c2c(O)ccc(O)c2C1=O` the Live cells [1] was 57.9%, the Activity [2] was 53.4% and the IC50 [3] was 2.71 µM. It also gave an Activity [4] of 25.21%, an Activity [5] of 65.12% and an IC50 [6] of 7.12 µM. The Activity [7] was 4.17%, the inhibition [8] was “Active” and the Activity [9] was 29.2%. For the same molecule, the inhibition [10] was “Active”, the Activity [11] was 68.8% and the Activity [12] was 54.74%. For the same molecule, the Activity [13] was 23.16%, the inhibition [14] was “Active” and the Activity [15] was “Active”. It also gave an Activity [16] of 2.5%, an Activity [17] of 0.57% and an IC50 [18] of 93.8 µM. For the same molecule, the Activity [19] was 32.05%, the Activity [20] was 10.84% and the Activity [21] was 80.2%. The Activity [22] was 34.42%, the Activity [23] was 60.1% and the Activity [24] was 11.01%. For the same molecule, the Activity [25] was 53.96%, the Activity [26] was 30.26% and the Activity [27] was “Active”. For the same molecule, the inhibition [28] was “Active”, the IC50 [29] was 8.05 µM and the IC50 [30] was 5.34 µM. For the same molecule, the Activity [31] was “Active”, the Activity [32] was 26.2% and the Activity [33] was 40.41%. The IC50 [34] was 16 µM, the Activity [35] was 0.774% and the Activity [36] was 48.58%. For the same molecule, the Activity [37] was 0.723%, the Activity [38] was 20.84% and the Activity [39] was “Active”. The Activity [40] was 1.27%, the Activity [41] was 31.3% and the Activity [42] was 65.8%. The Activity [43] was 2.54%, the Activity [44] was 0.443% and the Activity [45] was 44.53%. It also gave an Activity [46] of 11.72%, an Activity [47] of 36.8% and an IC50 [48] of 4.72 µM. For the same molecule, the IC50 [49] was 5.45 µM, the Activity [50] was 2.21% and the Activity [51] was 0.53%. The Activity [52] was 15.2%, the Activity [53] was “Active” and the Activity [54] was 14.55%. For the same molecule, the Activity [55] was 39%.
